Reference: patent publication US9029557B2, “Labeled A4B2 ligands and methods therefor” (priority 2004, dated 2015)
Read-outs that look alike come from different tables or passages of the source.

How the values were obtained:
α4β2 nAChRs [1] = biological target: α4β2 nAChRs (Homo sapiens, UniProt P17787+P43681); settings: comparison agents; cited from earlier work
α4β2 receptors [2] = biological target: T1, α4β2 receptors (Homo sapiens, UniProt P17787+P43681); parameters: host or cells: human brain in vivo (SPECT), work done elsewhere; settings: human studies; cited from earlier work
α4β2 nAChRs [3] = biological target: T2, α4β2 nAChRs (Rattus norvegicus, UniProt P09483+P12390); settings: rat PET, cerebellum as reference region
α4β2 receptor sites = α4β2 receptor sites (Rattus norvegicus, UniProt P09483+P12390)
Method: Coronal and horizontal brain slices ([…]) were obtained from male Sprague-Dawley rats. Sets of brain slices were preincubated in buffer (50 mmol/L Tris HCl containing 120 mmol/L NaCl, 5 mmol/L KCl, 2.5 mmol/L CaCl2, 1 mmol/L MgCl2, pH 7.4) for 10 min (26). […] Nonspecific binding was measured in the presence of […] (weighed as nicotine ditartarate). In some experiments, a lower concentration of nicotine (10 μmol/L) was also used. After incubation, slides were washed twice (1 min each) with ice-cold Tris HCl buffer, pH 7.4, followed by a quick rinse in cold deionized water. The slides were then air dried and apposed to phosphor screens overnight and read by the Cyclone Phosphor Imaging System (Packard Instruments Co).

α4β2 receptor [4] = biological target: T3, α4β2 receptor (Rattus norvegicus, UniProt P09483+P12390); settings: for % ID/g Blood / % ID/g Cerebellum / % ID/g Cortex / % ID/g Thalamus: i.v. 3.7 MBq
Source text: The animals were allowed to recover from anesthesia and had free access to food and water. […] Thalamus, Ctx, cerebellum, and blood were isolated from each rat and placed in preweighed tubes and were counted for 18F radioactivity.

α4β2 receptor [5] = system: α4β2 receptor
Method: The male rhesus monkey (12 kg) was anesthetized using ketamine (10 mg/kg) and xylazine (0.5 mg/kg) and was subsequently maintained on 0.5%-1.5% isoflurane. Two intravenous catheters were placed, one on each arm, for purposes of administration of the radiopharmaceutical and for obtaining blood samples during the study. The head of the animal was placed in the gantry of an ECAT EXACT HR PET scanner and positioned in place with adhesive tape as described previously. A transmission scan using a 68Ge/68Ga rod source was acquired before administration of the radiopharmaceutical to correct for tissue attenuation of the coincident radiation.
Data in the final form are expressed in units of the percentage injected dose per milliliter (% ID/mL) or kilobecquerels per milliliter (kBq/mL). […] Time-activity curves were obtained for all these regions. […] This MRI template of the rhesus (Macaca mulatta) brain is an average of 6 monkeys with T1-weighted MR scans. Postimage processing removed the skull and scalp from the template (courtesy of University of Wisconsin-Madison).

rat brain α4β2 receptors = biological target: T4, rat brain α4β2 receptors (Rattus norvegicus, UniProt P09483+P12390); assay: Brain homogenate binding assay using 3H-cytisine; settings: read-out: Binding affinity Ki for rat brain α4β2 receptors
T4 construct: The brains from male Sprague-Dawley rats (n=4 per group) were extracted and frozen; from tissue; host or cells: rat brain (Sprague-Dawley)

α4β2 receptor [6] = biological target: T3, α4β2 receptor; assay: Displacement of 18F-nifene bound in rat brain slices; format: binding; parameters: The brains from male Sprague-Dawley rats (n=4 per group) were extracted and frozen; from tissue; host or cells: rat brain (Sprague-Dawley); settings: 10 nM
α4β2 receptors [7] = biological target: T1, α4β2 receptors; assay: Affinity of Niofene; format: binding
alpha4-beta2 receptors = alpha4-beta2 receptors (Rattus norvegicus, UniProt P09483+P12390); settings: nicotine 60 μM, horizontal rat brain slices
α4β2 receptor [8] = biological target: T3, α4β2 receptor; assay: Autoradiography of 123I-niodene in rat brain sections; format: binding; parameters: The brains from male Sprague-Dawley rats (n=4 per group) were extracted and frozen; from tissue; host or cells: rat brain (Sprague-Dawley); settings: low specific activity 123I-niodene, 5 nM
α3β2 sites = biological target: T5, α3β2 sites (Rattus norvegicus, UniProt P04757+P12390); assay: In vitro binding affinity, inhibition of 125I-IEB in rat brain slices (autoradiography), α3β2 sites; settings: 125I-IEB in presence of 200 nmol/L cytisine
T5 construct: The brains from male Sprague-Dawley rats (n=4 per group) were extracted and frozen; from tissue; host or cells: rat brain slices (DLG, SuG, optic tract)
Method: (§1) In vitro binding affinity of nifrolidine was measured in rat brain slices labeled with 125I-iodoepibatidine (125I-IEB) or 125I-α-bungarotoxin. The brains from male Sprague-Dawley rats (n=4 per group) were extracted and frozen in isopentane at […].
(§2) Coronal sections (20-μm thick) were prepared from 4 brain levels on a cryostat at […]. […] Competition studies were performed by incubating alternate sections with 125IIEB in the absence or presence of cytisine (200 nmol/L) and nicotine (300 μmol/L) and various concentrations of nifrolidine (0-30 nmol/L). Slides were then rinsed twice for 10 min in ice-cold buffer, dipped briefly in ice-cold water, blown dry, and laid out for autoradiography along with 125I plastic standards of known radioactivity (FIG. 3). […]
(§3) Autoradiograms were quantified with a computer-based image analysis system (MCID; Imaging Research) using calibrated standards of reference. A calibration curve of to optical density against radioligand concentration (fmol/mg tissue) was constructed using values of known radioactivity. Optical densities in discrete regions of the autoradiographic images were measured, and corresponding values of radioactivity were determined by interpolation from the calibration curve. Specific binding values in each region were determined by subtracting binding in the presence of excess inhibitor from total binding values. […]

α3β4 sites = biological target: T6, α3β4 sites (Rattus norvegicus, UniProt P04757+P12392); assay: In vitro binding affinity, inhibition of 125I-IEB in rat brain slices (autoradiography), α3β4 sites; settings: 125I-IEB in presence of 200 nmol/L cytisine
T6 construct: The brains from male Sprague-Dawley rats (n=4 per group) were extracted and frozen; from tissue; host or cells: rat brain slices (pineal, interpeduncular nucleus, medial habenula)
Method: as §1, §2, §3

α7 nAChRs = biological target: T7, α7 nAChRs (Rattus norvegicus, UniProt Q05941); assay: 125I-α-bungarotoxin binding competition in rat brain slices; settings: up to a concentration of 30 nmol/L
T7 construct: The brains from male Sprague-Dawley rats (n=4 per group) were extracted and frozen; from tissue; host or cells: rat brain slices (VLG, SuG)
Method: as §1, §2, §3

α4β2 nAChRs [9] = biological target: T2, α4β2 nAChRs; assay: In vitro binding affinity, inhibition of 125I-IEB in rat brain slices (autoradiography), α4β2 sites; parameters: from tissue; host or cells: brain of the living rat (PET); settings: p-toluenesulfonate salt
Method: as §1, §2, §3

[10] = rhesus monkey PET, 155 MBq i.v.

T3 sequence (P09483 31-630): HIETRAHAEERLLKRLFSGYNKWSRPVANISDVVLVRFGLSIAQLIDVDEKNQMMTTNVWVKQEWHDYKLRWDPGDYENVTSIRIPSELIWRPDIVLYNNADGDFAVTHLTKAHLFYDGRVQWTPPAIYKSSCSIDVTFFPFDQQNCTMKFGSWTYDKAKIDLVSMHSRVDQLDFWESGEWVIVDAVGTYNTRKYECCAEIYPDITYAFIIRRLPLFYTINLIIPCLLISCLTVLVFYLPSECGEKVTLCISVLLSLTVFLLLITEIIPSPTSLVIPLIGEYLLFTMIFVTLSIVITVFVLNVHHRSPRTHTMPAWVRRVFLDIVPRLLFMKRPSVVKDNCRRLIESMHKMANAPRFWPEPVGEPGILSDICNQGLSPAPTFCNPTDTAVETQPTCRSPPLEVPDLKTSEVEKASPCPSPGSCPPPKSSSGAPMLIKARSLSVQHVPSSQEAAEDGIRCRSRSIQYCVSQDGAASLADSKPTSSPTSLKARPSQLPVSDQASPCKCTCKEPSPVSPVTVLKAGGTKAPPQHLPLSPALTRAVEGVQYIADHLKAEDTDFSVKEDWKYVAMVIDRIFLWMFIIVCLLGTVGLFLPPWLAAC
T3 sequence (P12390 25-500): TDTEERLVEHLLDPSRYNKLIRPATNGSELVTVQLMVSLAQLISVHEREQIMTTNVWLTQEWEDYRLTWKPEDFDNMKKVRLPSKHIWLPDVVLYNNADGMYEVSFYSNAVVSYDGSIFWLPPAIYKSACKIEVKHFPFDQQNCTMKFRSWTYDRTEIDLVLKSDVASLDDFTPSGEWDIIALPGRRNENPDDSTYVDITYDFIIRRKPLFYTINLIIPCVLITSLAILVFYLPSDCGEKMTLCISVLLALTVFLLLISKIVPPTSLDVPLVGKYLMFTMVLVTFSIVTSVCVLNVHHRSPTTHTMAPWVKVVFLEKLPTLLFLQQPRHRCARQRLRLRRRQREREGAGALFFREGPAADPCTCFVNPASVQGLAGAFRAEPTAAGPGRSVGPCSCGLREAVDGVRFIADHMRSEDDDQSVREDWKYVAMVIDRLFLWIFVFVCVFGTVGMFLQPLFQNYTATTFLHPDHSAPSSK
T7 sequence (Q05941 23-502): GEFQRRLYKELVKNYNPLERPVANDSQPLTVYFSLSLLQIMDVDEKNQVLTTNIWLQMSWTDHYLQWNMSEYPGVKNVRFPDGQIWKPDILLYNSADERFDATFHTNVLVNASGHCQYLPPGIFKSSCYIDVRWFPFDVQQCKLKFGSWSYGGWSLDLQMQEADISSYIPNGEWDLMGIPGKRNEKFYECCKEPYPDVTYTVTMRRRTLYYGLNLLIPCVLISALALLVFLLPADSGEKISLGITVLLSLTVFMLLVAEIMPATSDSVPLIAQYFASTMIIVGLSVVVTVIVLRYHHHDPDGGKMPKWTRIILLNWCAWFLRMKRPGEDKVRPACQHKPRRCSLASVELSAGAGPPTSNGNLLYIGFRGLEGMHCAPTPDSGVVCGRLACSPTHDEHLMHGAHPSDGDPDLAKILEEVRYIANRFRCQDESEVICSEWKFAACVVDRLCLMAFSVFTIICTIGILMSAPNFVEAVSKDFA
T1 sequence (P43681 29-627 limits assumed): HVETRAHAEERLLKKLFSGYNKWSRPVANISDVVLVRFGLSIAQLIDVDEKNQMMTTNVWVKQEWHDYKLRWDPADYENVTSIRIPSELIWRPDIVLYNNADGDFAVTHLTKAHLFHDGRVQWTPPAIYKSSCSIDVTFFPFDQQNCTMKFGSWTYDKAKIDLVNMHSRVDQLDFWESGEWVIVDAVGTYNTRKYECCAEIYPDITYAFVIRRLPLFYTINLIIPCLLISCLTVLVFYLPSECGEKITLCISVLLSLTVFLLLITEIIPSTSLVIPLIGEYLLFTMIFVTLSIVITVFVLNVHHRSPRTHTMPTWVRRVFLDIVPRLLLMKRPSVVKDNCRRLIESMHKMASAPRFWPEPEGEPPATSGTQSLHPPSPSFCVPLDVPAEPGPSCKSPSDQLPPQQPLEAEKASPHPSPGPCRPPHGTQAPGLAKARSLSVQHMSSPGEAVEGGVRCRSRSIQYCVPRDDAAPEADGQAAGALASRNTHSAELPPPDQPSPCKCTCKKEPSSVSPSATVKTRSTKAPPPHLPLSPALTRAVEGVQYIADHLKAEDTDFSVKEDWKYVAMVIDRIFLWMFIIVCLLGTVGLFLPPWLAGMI
T1 sequence (P17787 26-502): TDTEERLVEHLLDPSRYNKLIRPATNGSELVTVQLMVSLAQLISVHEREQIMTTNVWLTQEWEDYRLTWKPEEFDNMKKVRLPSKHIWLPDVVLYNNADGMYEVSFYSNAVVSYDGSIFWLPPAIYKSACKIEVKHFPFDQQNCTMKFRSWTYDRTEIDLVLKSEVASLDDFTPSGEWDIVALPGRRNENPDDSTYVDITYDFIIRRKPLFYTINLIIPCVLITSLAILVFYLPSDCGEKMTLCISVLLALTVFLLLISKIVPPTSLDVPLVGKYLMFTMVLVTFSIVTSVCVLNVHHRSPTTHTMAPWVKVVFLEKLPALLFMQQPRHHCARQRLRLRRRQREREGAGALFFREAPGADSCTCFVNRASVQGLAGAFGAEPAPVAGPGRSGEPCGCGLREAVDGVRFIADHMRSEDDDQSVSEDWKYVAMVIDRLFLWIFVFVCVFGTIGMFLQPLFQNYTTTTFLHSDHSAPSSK
T2 sequence (P09483 31-630): as the sequence (P09483 31-630) above
T2 sequence (P12390 25-500): as the sequence (P12390 25-500) above
Chain of α4β2 receptor sites (P09483 31-630): as the sequence (P09483 31-630) above
Chain of α4β2 receptor sites (P12390 25-500): as the sequence (P12390 25-500) above
T5 sequence (P04757 26-499): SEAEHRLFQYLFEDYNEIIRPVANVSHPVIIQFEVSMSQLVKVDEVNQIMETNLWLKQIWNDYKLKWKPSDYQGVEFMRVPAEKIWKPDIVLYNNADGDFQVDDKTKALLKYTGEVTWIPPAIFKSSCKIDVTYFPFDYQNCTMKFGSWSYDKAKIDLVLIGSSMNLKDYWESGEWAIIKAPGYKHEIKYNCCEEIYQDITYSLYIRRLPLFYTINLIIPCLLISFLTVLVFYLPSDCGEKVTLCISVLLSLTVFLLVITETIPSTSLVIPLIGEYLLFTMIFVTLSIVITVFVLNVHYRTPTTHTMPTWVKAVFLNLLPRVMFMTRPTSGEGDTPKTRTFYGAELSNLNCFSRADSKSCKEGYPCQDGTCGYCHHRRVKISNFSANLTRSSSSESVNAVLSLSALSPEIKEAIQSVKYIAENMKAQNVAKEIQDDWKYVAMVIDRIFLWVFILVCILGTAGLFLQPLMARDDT
T5 sequence (P12390 25-500): as the sequence (P12390 25-500) above
T6 sequence (P04757 26-499): as the sequence (P04757 26-499) above
T6 sequence (P12392 21-495): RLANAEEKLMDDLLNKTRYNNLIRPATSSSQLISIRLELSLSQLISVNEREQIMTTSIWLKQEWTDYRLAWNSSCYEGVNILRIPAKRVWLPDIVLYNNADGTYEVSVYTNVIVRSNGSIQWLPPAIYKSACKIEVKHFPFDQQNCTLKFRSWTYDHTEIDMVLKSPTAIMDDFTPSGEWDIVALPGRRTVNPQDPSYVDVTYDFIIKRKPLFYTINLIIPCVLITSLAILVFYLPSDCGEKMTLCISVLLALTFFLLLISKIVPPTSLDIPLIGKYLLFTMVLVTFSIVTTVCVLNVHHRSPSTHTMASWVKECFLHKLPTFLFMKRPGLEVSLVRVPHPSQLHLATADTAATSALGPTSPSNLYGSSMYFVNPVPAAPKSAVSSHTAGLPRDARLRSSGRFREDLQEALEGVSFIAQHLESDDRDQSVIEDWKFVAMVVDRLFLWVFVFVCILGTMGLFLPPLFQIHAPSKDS
Chain of α4β2 nAChRs (Homo sapiens, UniProt P17787+P43681) (P43681 29-627 limits assumed): as the sequence (P43681 29-627 limits assumed) above
Chain of α4β2 nAChRs (Homo sapiens, UniProt P17787+P43681) (P17787 26-502): as the sequence (P17787 26-502) above
Chain of alpha4-beta2 receptors (P09483 31-630): as the sequence (P09483 31-630) above
Chain of alpha4-beta2 receptors (P12390 25-500): as the sequence (P12390 25-500) above
T4 sequence (P09483 31-630): as the sequence (P09483 31-630) above
T4 sequence (P12390 25-500): as the sequence (P12390 25-500) above

[18F]c1ncccc1OC[C@@H]1CCN1 [2-FA85380, 2-18F-fluoro-3-(2(S)-azetidinylmethoxy)pyridine]
time to reach pseudoequilibrium (α4β2 nAChRs [1]): 4 to 6 h

Ic1cncc(OC[C@@H]2CCN2)c1 [5-IA85380]
scanning time required (α4β2 receptors [2]): over 6 hrs

[18F]c1ncc(I)cc1OC[C@@H]1C=CCN1 [18F-Niofene, 2-^18F-5-iodo-3-[2-(S)-3,4-dehydropyrrolinylmethoxy]pyridine]
TH/CB at pseudoequilibrium (α4β2 nAChRs [3]): > 2

[18F]CCCc1cncc(OC[C@@H]2CCCN2)c1 [18F-nifrolidine, 5-(3-18F-fluoropropyl)-3-(2-(S)-pyrrolidinylmethoxy)pyridine]
binding in cerebellum as % of that found in the AV (α4β2 receptor sites; horizontal rat brain slices): approximately 8%
order of binding in brain regions (α4β2 receptor sites; horizontal slices): thalamus>Ctx>striata>cerebellum
Thalamus-to-cerebellum ratio, Control (α4β2 receptor [4]; rat, 2 min): 1.30
Thalamus-to-cerebellum ratio, Control (α4β2 receptor [4]; rat, 60 min): 3.08
Thalamus-to-cerebellum ratio, Before nicotine (α4β2 receptor [4]; rat, 60 min, nicotine ditartarate 10 mg/kg s.c. 5 min before 18F-nifrolidine): 1.8
Thalamus-to-cerebellum ratio, Control (α4β2 receptor [4]; rat, 120 min): 1.40
% ID/g Blood (α4β2 receptor [4]; rat, 2 min): 0.25 % ID/g
% ID/g Cerebellum (α4β2 receptor [4]; rat, 2 min): 0.24 ± 0.03 % ID/g
% ID/g Cortex (α4β2 receptor [4]; rat, 2 min): 0.21 ± 0.04 % ID/g
% ID/g Thalamus (α4β2 receptor [4]; rat, 2 min): 0.26 ± 0.05 % ID/g
% ID/g Blood (α4β2 receptor [4]; rat, 2 min, listed as 18F-NIFROLIDINE): 0.25 ± 0.09 % ID/g
% ID/g Blood (α4β2 receptor [4]; rat, 60 min): 0.14 ± 0.03 % ID/g
% ID/g Cerebellum (α4β2 receptor [4]; rat, 60 min): 0.12 ± 0.02 % ID/g
% ID/g Cortex (α4β2 receptor [4]; rat, 60 min): 0.25 ± 0.03 % ID/g
% ID/g Thalamus (α4β2 receptor [4]; rat, 60 min): > 0.3 % ID/g
% ID/g Thalamus (α4β2 receptor [4]; rat, 60 min, listed as 18F-NIFROLIDINE): 0.37 ± 0.07 % ID/g
% ID/g Blood (α4β2 receptor [4]; rat, 120 min): < 0.03 % ID/g
% ID/g Cerebellum (α4β2 receptor [4]; rat, 120 min): 0.10 ± 0.02 % ID/g
% ID/g Cortex (α4β2 receptor [4]; rat, 120 min): 0.13 ± 0.04 % ID/g
% ID/g Thalamus (α4β2 receptor [4]; rat, 120 min): 0.14 ± 0.03 % ID/g
% ID/g Blood (α4β2 receptor [4]; rat, 120 min, listed as 18F-NIFROLIDINE): 0.04 ± 0.01 % ID/g
blood-brain barrier penetration (α4β2 receptor [4]; rodents, in vivo): able to cross the blood-brain barrier
vital signs (α4β2 receptor [5]; anesthetized rhesus monkey, 155 MBq): did not exhibit any unusual deviations from the baseline values
time of maximal binding in the thalamus following injection (α4β2 receptor [5]; rhesus monkey PET): > 70 min
time to approach transient equilibrium (α4β2 receptor [5]; rhesus monkey PET): about 2.5 hrs
time to plateauing of the thalamus-to-Cb ratio (α4β2 receptor [5]; rhesus monkey PET): 150 min
selective maximal uptake in AVT and AMT (α4β2 receptor [5]; [10]): 0.011 % ID/mL
uptake in VLT (α4β2 receptor [5]; [10]): 0.10 % ID/mL
ratio between the thalamus and the Cb (α4β2 receptor [5]; rhesus monkey PET, about 140 min after injection): approximately 1.7
cortical regions to Cb ratio (α4β2 receptor [5]; rhesus monkey PET, in 120 min): 1.3
thalamus-to-Cb ratio (plateau) (α4β2 receptor [5]; rhesus monkey PET, in 120 min): 1.7

Ic1cncc(OC[C@@H]2C=CCN2)c1 [Niodene, 3-iodo-5-[2-(S)-3-pyrrolinylmethoxy]pyridine]
Ki (rat brain α4β2 receptors): 0.27 nM
displacement of 18F-nifene bound to α4β2 receptors (α4β2 receptor [6]): > 95%

Fc1ncc(I)cc1OC[C@@H]1C=CCN1 [Niofene, 2-Fluoro-5-iodo-3-[2-(S)-3,4-dehydropyrrolinylmethoxy]pyridine]
affinity (α4β2 receptors [7]): subnanomolar

[18F]c1ncccc1OC[C@@H]1C=CCN1 [^18F-Nifene, 2-[^18F]fluoro-3-[2-(S)-pyrrolinyl-3,4-dehydromethoxy]pyridine]
reversal of binding by nicotine (alpha4-beta2 receptors): rapidly reverse

[123I]c1cncc(OCC2C=CCN2)c1 (centres unmarked) [^123I-niodene]
cortex to cerebellum binding ratio (α4β2 receptor [8]): 1.6
thalamus to cerebellum binding ratio (α4β2 receptor [8]): 4

FCCCc1cncc(OC[C@@H]2CCCN2)c1 [nifrolidine, 5-(3′-fluoropropyl)-3-(2-(S)-pyrrolidinylmethoxy)-pyridine]
Ki (α3β2 sites): > 30 nM
Ki (α3β4 sites): > 30 nM
affinity for α7 sites (displacement of 125I-α-bungaratoxin) (α7 nAChRs): no measureable displacement and weak
Ki (α4β2 nAChRs [9]): 2.89 nM
